{"source": "patent EP1105728B1", "about": "“MODULATING MULTIPLE LINEAGE KINASE PROTEINS” (CEPHALON, INC., priority 1998, dated 2000)", "key": {"MLK-3": {"target": "T1, MLK-3 (Homo sapiens, UniProt Q16584)", "T1 construct": "A full length cDNA of human MLK-3, MLK-2, or mouse DLK; expressed in transfected cells; host or cells: Cos7", "T1 sequence (Q16584 whole entry)": "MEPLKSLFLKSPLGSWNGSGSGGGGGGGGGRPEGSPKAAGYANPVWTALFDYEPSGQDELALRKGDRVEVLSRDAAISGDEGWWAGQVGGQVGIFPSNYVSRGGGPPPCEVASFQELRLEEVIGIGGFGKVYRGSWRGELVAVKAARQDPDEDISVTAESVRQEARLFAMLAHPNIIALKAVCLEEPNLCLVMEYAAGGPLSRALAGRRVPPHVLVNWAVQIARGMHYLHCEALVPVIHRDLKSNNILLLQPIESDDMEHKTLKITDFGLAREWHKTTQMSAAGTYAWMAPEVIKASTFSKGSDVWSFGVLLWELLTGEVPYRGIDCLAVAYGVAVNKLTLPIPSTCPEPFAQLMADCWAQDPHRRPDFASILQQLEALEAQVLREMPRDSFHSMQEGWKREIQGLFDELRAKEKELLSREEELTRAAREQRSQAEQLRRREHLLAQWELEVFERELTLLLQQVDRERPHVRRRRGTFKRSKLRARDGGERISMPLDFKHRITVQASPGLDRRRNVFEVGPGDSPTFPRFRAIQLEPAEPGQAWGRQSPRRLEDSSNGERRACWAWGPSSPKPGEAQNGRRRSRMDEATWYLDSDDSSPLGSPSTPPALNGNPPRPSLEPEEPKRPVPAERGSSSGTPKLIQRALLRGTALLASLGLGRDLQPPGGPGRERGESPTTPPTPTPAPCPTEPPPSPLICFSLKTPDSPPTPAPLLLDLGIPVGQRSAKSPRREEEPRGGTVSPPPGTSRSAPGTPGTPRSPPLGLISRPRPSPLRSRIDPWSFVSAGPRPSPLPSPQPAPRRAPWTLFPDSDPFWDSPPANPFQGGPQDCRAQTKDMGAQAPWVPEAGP", "test": "JNK activity (immunoprecipitation/kinase assay) in Cos7 cells overexpressing MLK-3 and HA-JNK1", "assay_type": "cell-based", "details": "COS-7", "description": "Cos7 cells were plated at 80% confluency and transfected with 2 ug each of cDNA constructs using lipofectamine as recommended by the provider (Gibco BRL, Gaithersburg, MD). A full length cDNA of human MLK-3, MLK-2, or mouse DLK or a partial human MLK-1 as described above, and a full length Hemagluttinin A-tagged human JNK1, kindly provided by J. Silvio Gutkind (NIH, Bethesda, MD), were subcloned into the pcDNA3 vector (Invitrogen, San Diego, CA). […] JNK activity from the lysate was assayed by an immunoprecipitation/kinase assay as described below.\nLysate from Cos 7 cells was measured for protein concentration using the Micro BCA kit from Pierce (Rockford, IL) and equal amounts of protein were immunoprecipitated with the HA antibody for 1 hr at 4°C. Immunoprecipitates were pelleted by centrifugation in a microfuge centrifuge for 20 sec, resuspended in Triton buffer, washed by centrifugation 2 more times, followed by a final wash in Kinase buffer (20 mM Hepes pH 7.4,20 mM MgCl2, 2 mM dithiothreitol, 0.1 mM sodium vanadate). The immunoprecipitate was resuspended in kinase buffer containing 1 µM ATP and 5 µCi [γ-^32P]ATP and substrate (1 µg/sample of AP-1 ) and incubated for 15 min at 30°C. […] Samples were heated to 80°C for 5 min and loaded onto 10% SDS-polyacrylamide gels. Proteins were separated by electrophoresis. The gel was dried and quantitation of radioactivity in the AP-1 substrate was performed on a Molecular Dynamics Phosphorimager (Sunnyvale, Ca.).\nTo determine whether inhibition of the JNK pathway regulated by these kinases correlated with neurotrophic compounds, we evaluated the effect of compounds on JNK activity in Cos7 cells overexpressing HA-JNK and MLK3. After a 48 hr transfection period, the cells were incubated with compounds at 500 nM for 2hr followed by cellular lysis. Lysate was immunoprecipitated and kinase activity measured as previously described. […]"}, "motoneurons": {"tested_on": "motoneurons", "test": "Survival of rat spinal cord cultures enriched for motoneurons (calcein AM)", "assay_type": "cell-based", "details": "data not shown", "description": "Spinal cords were dissected from Sprague-Dawley rat fetuses (Charles River Laboratories, Wilmington. MA) of embryonic age (E) 14.5-15. […] Cells were seeded onto 96-well plates previously coated with poly-1-omithine and laminin (5 ug/ml each) at a density of 6 x 10^4 cells/cm^2 in chemically defined serum-free N2 medium (Bottenstein, et al., 1979, supra). In order to separate attachment from survival effects, addition of compounds to cultures was made after an initial attachment period of 1-3 h. Neuronal survival was assessed after 4 d by using calcein AM (Molecular Probes, Eugene, OR) in a fluorometric viability assay (Bozyczko-Coyne, et al., 1993, supra). Microscopic counts of neurons correlated directly with relative fluorescence values. In brief, culture medium was serially diluted in DPBS (Dulbeccos phosphate buffered saline) and a final concentration of 6 uM calcein AM stock was then added to each 96-well. The plates were incubated for 30 min at 37°C, followed by serial dilution washes in DPBS. The fluorescent signal was read using a plate-reading fluorimeter from Millipore (Cytofluor 2350) at excitation=485 nm and emission = 538 nm. […] Linearity of the fluorescence signal was verified for the concentration and incubation time for the range of cell densities in these experiments. […]"}, "chick motoneurons": {"tested_on": "chick motoneurons", "test": "Survival of chick embryonic motoneurons", "assay_type": "cell-based", "description": "Motoneurons (embryonic day 5.5) were isolated with an immunological method according to the procedure set forth in Bloch-Gallego, et al., Development, 1991, 111, 221-232, which is incorporated herein by reference in its entirety, with modifications as described in Weng, et al., NeuroReport, 1996, 7, 1077-1081, which is incorporated herein by reference in its entirety. Purified motoneurons were seeded onto 35 mm tissue culture dishes (Nunc) pre-coated with poly-DL-omithine and laminin (1 µg/ml, Upstate Biotech). […] Muscle extract was supplemented at 30 µg/ml. Compound III-3 was prepared as a 4mM stock solution in DMSO and stored protected from light at 4°C. The final concentration of DMSO in treated and control cultures was 0.125%.\nNeurons were plated in 35 mm culture dishes with grids (Nunc). Selected areas of each dish comprising together about 10% of the surface scanned for the presence of phase bright cells immediately after plating and again after 48 h to assess survival percentages. Cell survival was confirmed by vital staining with trypan blue (not shown)."}, "[1]": {"tested_on": "hypoglossal motor neurons", "test": "Axotomy-induced motor neuronal dedifferentiation in the adult rat (hypoglossal nerve)", "assay_type": "in vivo", "details": "for ChAT-Positive Motor Neurons Average/Group / ChAT-Positive Motor Neurons Experimental/Control / ChAT-Positive Motor Neurons %: 7 days; for ChAT-Positive Motor Neurons Experimental/Control: counts ipsilateral/contralateral; for ChAT-Positive Motor Neurons Experimental/Control / ChAT-Positive Motor Neurons %: per animal", "description": "The left hypoglossal nerve was transected in the neck of adult female Sprague-Dawley rats (120-180 g) under Neumbutol anesthesia, and 50 µl of Compound III-3 or its vehicle (5% Solutol™ HS 15) were applied to a piece of Gelfoam ™ (AJ Buck, Owings Mills, MD), then wrapped around the proximal end of the transected nerve. After 7 days, the animals were anesthetized and perfused with 4% paraformaldehyde in Sorenson's buffer, 0.07 M phosphate, pH 7.2. The brain stem was removed and 40- µm-thick serial coronal sections were cut on a cryostat (Chiu, et al., NeuroReport, 1994, 5, 693-696, which is incorporated herein by reference in its entirety). Every fifth section was processed for ChAT immunohistochemistry as previously described (Chiu, et al., J. Comp. Neurol., 1993, 328, 351-363, which is incorporated herein by reference in its entirety) using a 1:350 dilution of an anti-ChAT monoclonal antibody obtained from Chemicon. Cells that stained clearly above background were counted in stained sections; the number of enumerated cells was expressed as the ratio of the number of ChAT-immunoreactive cells on the axotomized side of the hypoglossal nucleus versus the number of immunoreactive cells on the control (uninjured) side."}, "trkA tyrosine kinase": {"target": "trkA tyrosine kinase (Homo sapiens, UniProt P04629)", "sequence (P04629 33-796)": "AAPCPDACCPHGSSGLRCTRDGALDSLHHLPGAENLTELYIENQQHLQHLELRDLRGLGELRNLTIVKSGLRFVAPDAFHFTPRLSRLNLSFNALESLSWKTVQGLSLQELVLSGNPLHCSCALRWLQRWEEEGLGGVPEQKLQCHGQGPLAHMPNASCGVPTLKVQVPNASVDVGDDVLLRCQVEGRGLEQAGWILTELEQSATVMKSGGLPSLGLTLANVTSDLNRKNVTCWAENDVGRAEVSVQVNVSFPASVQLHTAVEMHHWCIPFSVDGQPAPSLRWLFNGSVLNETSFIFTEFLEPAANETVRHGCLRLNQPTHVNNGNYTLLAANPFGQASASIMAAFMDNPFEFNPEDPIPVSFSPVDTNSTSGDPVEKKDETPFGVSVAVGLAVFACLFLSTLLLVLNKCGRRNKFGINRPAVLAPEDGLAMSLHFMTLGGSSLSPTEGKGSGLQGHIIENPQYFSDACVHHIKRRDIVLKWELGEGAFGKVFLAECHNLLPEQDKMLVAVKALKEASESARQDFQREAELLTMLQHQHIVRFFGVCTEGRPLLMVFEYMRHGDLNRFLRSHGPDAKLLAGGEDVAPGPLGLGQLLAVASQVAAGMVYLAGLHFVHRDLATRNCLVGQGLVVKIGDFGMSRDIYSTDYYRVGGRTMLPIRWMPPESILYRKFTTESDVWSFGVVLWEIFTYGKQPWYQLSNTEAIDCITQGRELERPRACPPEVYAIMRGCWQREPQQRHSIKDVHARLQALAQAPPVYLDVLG", "details": "Maroney et al.; Kaneko et al.; cited from earlier work"}}, "note": "Several values for one entry are separate records, joined by “and”; a condition that tells them apart may be missing. Equal entries are not always repeated. Where two headings read alike, the source gives them in different places. Marks after values point to notes of the source that are not given here."}
{"smiles": "CCSCc1ccc2c(c1)c1c3c(c4c5cc(CSCC)ccc5n5c4c1n2C1CC(O)(C(=O)OC)C5(C)O1)CNC3=O", "note": "(stereo not drawn) [III-3]", "values": [{"measurement": "inhibition at 0.5 µM", "setting": "MLK-3; 500 nM for 2hr, control is JNK activity in the presence of DMSO, read-out: % Inhibition of JNK Activity (average) MLK3 in Cos7 cells", "result": 94, "unit": "%"}, {"measurement": "inhibition at 0.5 µM", "setting": "MLK-3; read-out: Overexpressed MLK3 in Cos 7 Cells JNK % inh. 500 nM", "result": 94, "unit": "%"}, {"measurement": "potency in mediating survival in motor neuron-enriched cultures relative to K-252a", "setting": "motoneurons", "result": "approximately fivefold"}, {"measurement": "motoneurons survived", "setting": "chick motoneurons; after 48 h, Compound III-3 300 nM, serum-free conditions, muscle extract 30 µg/ml", "result": 79, "unit": "%"}, {"measurement": "motoneurons alive", "setting": "chick motoneurons; after four days in culture", "result": 56, "unit": "%"}, {"measurement": "concentration of maximal survival effect", "setting": "chick motoneurons; serum-free conditions, higher concentrations showed a progressively reduced effect", "result": 300, "unit": "nM"}, {"measurement": "ChAT-Positive Motor Neurons Average/Group", "setting": "[1]; 3.6 µg in gel foam", "result": "12.84*"}, {"measurement": "ChAT-Positive Motor Neurons Experimental/Control", "setting": "[1]; 3.6 µg in gel foam", "result": "55/420 and 72/572"}, {"measurement": "ChAT-Positive Motor Neurons %", "setting": "[1]; 3.6 µg in gel foam", "result": "13.10% and 12.59%"}, {"measurement": "ChAT-Positive Motor Neurons Average/Group", "setting": "[1]; 25 µg in gel foam", "result": "19.01*"}, {"measurement": "ChAT-Positive Motor Neurons Experimental/Control", "setting": "[1]; 25 µg in gel foam", "result": "95/597 and 142/642"}, {"measurement": "ChAT-Positive Motor Neurons %", "setting": "[1]; 25 µg in gel foam", "result": "15.91% and 22.12%"}, {"measurement": "ChAT-Positive Motor Neurons Average/Group", "setting": "[1]; 50 µg in gel foam", "result": "41.34*"}, {"measurement": "ChAT-Positive Motor Neurons Experimental/Control", "setting": "[1]; 50 µg in gel foam", "result": "278/637 and 188/484"}, {"measurement": "ChAT-Positive Motor Neurons %", "setting": "[1]; 50 µg in gel foam", "result": "43.85% and 38.84%"}, {"measurement": "ChAT-Positive Motor Neurons Average/Group", "setting": "[1]; 100 µg in gel foam", "result": "32.61*"}, {"measurement": "ChAT-Positive Motor Neurons Experimental/Control", "setting": "[1]; 100 µg in gel foam", "result": "465/920 and 235/784 and 178/770 and 182/679"}, {"measurement": "ChAT-Positive Motor Neurons %", "setting": "[1]; 100 µg in gel foam", "result": "50.54% and 29.98% and 23.12% and 26.80%"}, {"measurement": "ChAT-Positive Motor Neurons Average/Group", "setting": "[1]; 200 µg in gel foam", "result": "24.96*"}, {"measurement": "ChAT-Positive Motor Neurons Experimental/Control", "setting": "[1]; 200 µg in gel foam", "result": "99/461 and 159/559"}, {"measurement": "ChAT-Positive Motor Neurons %", "setting": "[1]; 200 µg in gel foam", "result": "21.48% and 28.44%"}, {"measurement": "weight loss, mortality, gross tissue damage", "setting": "[1]; any doses tested, hypoglossal axotomy model", "result": "no associated weight loss, mortality, or gross tissue damage"}, {"measurement": "more ChAT-immunoreactive motor neurons compared to the axotomized, untreated control", "setting": "[1]; maximally effective dose (50 µg), 7 days postaxotomy", "result": 40, "unit": "%"}, {"measurement": "inhibitory activity against trkA tyrosine kinase", "setting": "trkA tyrosine kinase", "result": "did not exhibit inhibitory activity"}]}
